# Assay results published in patent publication US9096591B2, “Tetracyclic compounds” (Medivation Technologies, Inc., priority 2007, dated 2015).
# Legend:
# [1] = biological target: T1, human recombinant adrenergic α2A receptor (Homo sapiens, UniProt P08913); experiment: Adrenergic α2A radioligand binding ([3H]MK-912); parameters: Inhibition of ligand binding, Adren. alpha2A: concentration or dose not given beside the values; conditions: percent inhibition of specific binding
# T1 construct: expressed in transfected cells; host or cells: insect Sf9 cells
# T1 sequence (P08913 1-465): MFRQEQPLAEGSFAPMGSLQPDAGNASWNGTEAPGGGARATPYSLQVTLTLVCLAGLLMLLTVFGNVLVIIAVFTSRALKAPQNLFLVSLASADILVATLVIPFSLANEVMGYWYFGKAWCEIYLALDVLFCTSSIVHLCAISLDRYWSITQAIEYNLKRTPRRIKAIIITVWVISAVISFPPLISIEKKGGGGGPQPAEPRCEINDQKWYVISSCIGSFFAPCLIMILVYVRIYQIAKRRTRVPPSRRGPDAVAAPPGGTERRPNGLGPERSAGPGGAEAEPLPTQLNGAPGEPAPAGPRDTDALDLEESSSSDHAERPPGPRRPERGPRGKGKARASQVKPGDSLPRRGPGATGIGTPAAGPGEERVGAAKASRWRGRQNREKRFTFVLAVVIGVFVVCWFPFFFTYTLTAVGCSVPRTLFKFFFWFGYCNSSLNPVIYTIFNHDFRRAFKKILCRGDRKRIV
# Procedure, shortened: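 Membranes from Sf9 cells expressing the receptor were incubated with 1 nM [3H]MK-912 for 60 minutes at 25° C in 50 mM Tris-HCl pH 7.4, 12.5 mM MgCl2, 2 mM EDTA. 10 μM WB-4101 defined non-specific binding. Values are percent inhibition of specific bound radioactivity after filtration.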
# [2] = biological target: T2, human recombinant serotonin (5-Hydroxytryptamine) 5-HT6 receptor (Homo sapiens, UniProt P50406); experiment: Serotonin 5-HT6 radioligand binding ([3H]LSD); parameters: Inhibition of ligand binding, Ser. 5-HT6: concentration or dose not given beside the values; conditions: percent inhibition of specific binding
# T2 construct: expressed in transfected cells; host or cells: human HeLa cells
# Excerpt: Receptor proteins were filtered and washed, the filters were then counted to determine [3H]LSD specifically bound. […] Biochemical assay results are presented as the percent inhibition of specific binding in Table 6.
# [3] = tested on: adrenergic receptors α1D, α2A, α2B; serotonin receptor 5-HT6; dopamine receptor D2L; experiment: Classification of compounds (Type 1-4) from receptor binding and neurite outgrowth
# Excerpt: Compounds of the invention that inhibit binding of a ligand to adrenergic receptors α1D, α2A, α2B and serotonin receptor 5-HT6 by at least about 80% as determined in a suitable assay such as the assays described herein can be classified as Type 1 compounds. […] In one variation, binding of a ligand to serotonin receptor 5-HT7 is at least about 80%. […] Weak inhibition of binding of a ligand to the histamine H1 receptor is permitted as agonists of this receptor have been implicated in stimulating memory as well as weight gain. In one variation, binding to histamine receptor H1 is inhibited by less than about 80%. […] Compounds that inhibit binding of a ligand to the dopamine D2L receptor by at least about 80% as determined in a suitable assay such as the assay described herein can be classified as Type 2 compounds.
# In one variation, Type 1 compounds further inhibit binding of a ligand to dopamine receptor D2L by less than about 80% as determined in a suitable assay known in the art such as the assay described herein. […] In one variation, binding of a ligand to serotonin receptor 5-HT7, 5-HT2A and/or 5-HT2C is inhibited by at least about 80% as determined in a suitable assay such as the assays described herein. […] In one variation, binding of a ligand to histamine receptor H1 and/or H2 is inhibited by less than about 80% as determined by a suitable assay known in the art such as the assays described herein.
# In one variation, biding to serotonin receptor 5-HT2A is inhibited by at least about 80% as determined in a suitable assay know in the art such as the assay described herein.
# [4] = biological target: T3, human recombinant adrenergic α1D receptor (Homo sapiens, UniProt P25100); experiment: Adrenergic α1D radioligand binding ([3H]Prozosin); parameters: Inhibition of ligand binding, Adren. alpha1D: concentration or dose not given beside the values; conditions: percent inhibition of specific binding
# T3 construct: expressed in transfected cells; host or cells: HEK-293 cells
# T3 sequence (P25100 1-572): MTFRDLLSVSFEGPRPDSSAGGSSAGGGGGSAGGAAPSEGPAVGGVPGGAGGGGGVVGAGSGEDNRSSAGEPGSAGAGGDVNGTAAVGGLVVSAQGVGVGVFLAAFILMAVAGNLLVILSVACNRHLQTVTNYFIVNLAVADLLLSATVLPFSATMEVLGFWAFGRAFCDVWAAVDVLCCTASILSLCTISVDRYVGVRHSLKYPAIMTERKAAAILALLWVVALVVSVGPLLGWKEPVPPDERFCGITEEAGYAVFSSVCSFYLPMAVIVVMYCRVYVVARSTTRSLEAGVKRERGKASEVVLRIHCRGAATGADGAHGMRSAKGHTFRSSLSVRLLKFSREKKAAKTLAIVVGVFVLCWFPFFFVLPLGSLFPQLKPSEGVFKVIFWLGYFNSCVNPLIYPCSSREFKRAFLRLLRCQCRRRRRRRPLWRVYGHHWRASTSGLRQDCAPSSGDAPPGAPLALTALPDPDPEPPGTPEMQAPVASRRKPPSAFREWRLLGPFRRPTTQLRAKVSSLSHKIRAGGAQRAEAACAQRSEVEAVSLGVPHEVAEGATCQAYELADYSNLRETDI
# Procedure: Compounds of invention were incubated with 0.6 nM [^3H]Prozosin for 60 minutes at 25° C. Non-specific binding was estimated in the presence of 10 μM phentolamine. Receptor proteins were filtered and washed, the filters were then counted to determine [^3H]Prozosin specifically bound. […] Biochemical assay results are presented as the percent inhibition of specific binding in Table 6.
# [5] = biological target: T4, Serotonin (5-Hydroxytryptamine) 5-HT7 (Homo sapiens, UniProt P34969); experiment: Serotonin 5-HT7 radioligand binding ([3H]LSD); parameters: Inhibition of ligand binding, Ser. 5-HT7: concentration or dose not given beside the values; conditions: percent inhibition of specific binding
# T4 construct: expressed in transfected cells; host or cells: CHO cells
# Procedure: Lysergic acid diethylamide (LSD) for 2 hours at 25° C. […] Receptor proteins were filtered and washed, the filters were then counted to determine [^3H]LSD specifically bound. […] Biochemical assay results are presented as the percent inhibition of specific binding in Table 6.
# T2 sequence (P50406 whole entry): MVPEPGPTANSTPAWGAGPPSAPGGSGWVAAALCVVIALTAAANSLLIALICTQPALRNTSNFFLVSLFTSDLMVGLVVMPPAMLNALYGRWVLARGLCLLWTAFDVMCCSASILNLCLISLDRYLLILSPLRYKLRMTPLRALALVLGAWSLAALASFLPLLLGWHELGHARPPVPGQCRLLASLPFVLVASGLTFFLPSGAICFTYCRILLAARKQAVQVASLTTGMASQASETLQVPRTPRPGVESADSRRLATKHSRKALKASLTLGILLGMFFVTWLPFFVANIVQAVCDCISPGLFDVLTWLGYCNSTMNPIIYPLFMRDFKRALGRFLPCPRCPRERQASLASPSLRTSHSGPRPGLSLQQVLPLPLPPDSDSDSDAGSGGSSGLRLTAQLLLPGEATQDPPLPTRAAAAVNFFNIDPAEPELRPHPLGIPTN
# T4 sequence (P34969 whole entry): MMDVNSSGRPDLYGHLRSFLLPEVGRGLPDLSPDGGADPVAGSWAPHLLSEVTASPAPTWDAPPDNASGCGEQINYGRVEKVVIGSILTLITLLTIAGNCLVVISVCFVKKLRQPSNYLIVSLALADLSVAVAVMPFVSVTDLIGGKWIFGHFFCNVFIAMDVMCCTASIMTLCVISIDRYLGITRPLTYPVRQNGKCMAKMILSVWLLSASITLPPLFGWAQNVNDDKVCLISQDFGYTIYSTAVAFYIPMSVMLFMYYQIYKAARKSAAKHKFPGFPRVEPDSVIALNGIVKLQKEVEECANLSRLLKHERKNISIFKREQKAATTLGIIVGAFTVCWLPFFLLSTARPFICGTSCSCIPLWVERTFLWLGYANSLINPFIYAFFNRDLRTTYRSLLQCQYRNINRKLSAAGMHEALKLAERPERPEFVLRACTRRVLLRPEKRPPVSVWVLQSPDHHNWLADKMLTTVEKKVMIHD
compound type (classification by receptor binding profile and neurite outgrowth) [3],SMILES,"Inhibition of ligand binding, Adren. alpha2A [1] [%]","Inhibition of ligand binding, Ser. 5-HT6 [2] [%]","Inhibition of ligand binding, Adren. alpha1D [4] [%]","Inhibition of ligand binding, Ser. 5-HT7 [5] [%]"
Type one,"Cc1ccc(C(O)Cn2c3c(c4cc(C)ccc42)CN(C)CC3)cc1 (racemic) [Compound 28, racemic-2-(1,2,3,4-tetrahydro-2,8-dimethylpyrido[4,3-b]indol-5-yl)-1-p-tolylethanol]",100,99,89,–
–,"CN1CCc2c(c3cc(Cl)ccc3n2CCN2CCOCC2)C1 [Compound 186, 8-chloro-2,3,4,5-tetrahydro-2-methyl-5-(2-morpholinoethyl)-1H-pyrido[4,3-b]indole]",51,83,41,57
–,"CN1CCc2c(c3c(Cl)cccc3n2CCC2CCCCC2)C1 [Compound 187, 9-chloro-5-(2-cyclohexylethyl)-2,3,4,5-tetrahydro-2-methyl-1H-pyrido[4,3-b]indole]",90,53,15,77
–,"CN1CCc2c(c3ccc(Cl)cc3n2CCC2CCCCC2)C1 [Compound 188, 7-chloro-5-(2-cyclohexylethyl)-2,3,4,5-tetrahydro-2-methyl-1H-pyrido[4,3-b]indole]",80,67,8,41
–,"Cc1ccc2c(c1)c1c(n2CCc2ccc(C)nc2)CC(=O)N(C)C1 [Compound 195, 1,2-dihydro-2,8-dimethyl-5-(2-(6-methylpyridin-3-yl)ethyl)-4H-pyrido[4,3-b]indol-3(5H)-one]",4,8,15,2
–,"Cc1ccc2c(c1)c1c(n2CCc2ccccc2)CC(O)N(C)C1=O (centres unmarked) [Compound 215, 3,4-dihydro-3-hydroxy-2,8-dimethyl-5-phenethyl-2H-pyrido[4,3-b]indol-1(5H)-one]",23,8,−5,10
–,Cc1ccc2c(c1)c1c(n2CCc2ccc(C)nc2)CCN(C)C1=O [Compound 216],15,−8,−7,18
–,"Cc1ccc2c(c1)c1c(n2CCN2CCCCC2)CCN(C)C1 [Compound 224, 2,3,4,5-tetrahydro-2,8-dimethyl-5-(2-(piperidin-1-yl)ethyl)-1H-pyrido[4,3-b]indole]",57,43,22,61
–,"Cc1ccc2c(c1)c1c(n2CCc2ccccc2)CCN(C(=O)OCC(Cl)(Cl)Cl)C1 [Compound 227, 2,2,2-trichloroethyl 3,4-dihydro-8-methyl-5-phenethyl-1H-pyrido[4,3-b]indole-2(5H)-carboxylate]",0,9,11,−8
–,"Cc1ccc2c(c1)c1c(n2CCc2ccccc2)CCNC1 [Compound 228, 2,3,4,5-tetrahydro-8-methyl-5-phenethyl-1H-pyrido[4,3-b]indole]",87,89,76,95
–,CN1CCc2c(c3cc(F)ccc3n2CCc2ccc(F)cc2)C1 [Compound 253],93,105,81,87
–,Cc1ccc2c(c1)c1c(n2CCc2ccc(C(=O)O)nc2)CCNC1 [Compound 262],8,−4,3,6
–,"CN1CCc2c(c3cc(Cl)ccc3n2CCn2cccc2)C1 [Compound 349, 8-Chloro-2-methyl-5-(2-pyrrol-1-yl-ethyl)-2,3,4,5-tetrahydro-1H-pyrido[4,3-b]indole]",96,101,100,100
–,"Cc1ccc2c(c1)c1c(n2CCC(=O)N2CCC(NC(=O)OC(C)(C)C)CC2)CCN(C)C1 [Compound 393, tert-butyl 1-(3-(1,2,3,4-tetrahydro-2,8-dimethylpyrido[4,3-b]indol-5-yl)propanoyl)piperidin-4-ylcarbamate]",98,3,16,8
–,"Cc1ccc2c(c1)c1c(n2CCc2ccc(C)[n+]([O-])c2)CCN(C)C1 [Compound 394, 5-(2-(2,8-dimethyl-3,4-dihydro-1H-pyrido[4,3-b]indol-5(2H)-yl)ethyl)-2-methylpyridine 1-oxide]",15,5,9,7
–,"Cc1ccc2c(c1)c1c(n2CC(=O)N2CCCCC2)CCN(C)C1 [Compound 395, 2-(1,2,3,4-tetrahydro-2,8-dimethylpyrido[4,3-b]indol-5-yl)-1-(piperidin-1-yl)ethanone]",4,0,9,24
–,CC(Cn1c2c(c3ccccc31)CN(C)CC2)c1ccc(F)cc1 (centres unmarked) [Compound 455],93,99,81,98
